Source: PubChem BioAssay AID1918955 (Molecular Pharmacology Branch, DTP, NCI, 2023)
pIC50: −log10 of the molar value.

Test system: NCI/ADR-RES complex spheroid viability
Test: Anticancer human tumor NCI/ADR-RES cell line growth inhibition;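 also: spheroids exposed to compounds for 7 days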;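 as to viability, T/C: 100% = DMSO vehicle treated spheroids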
Conditions: for pIC50: curve of first compound; for viability, T/C: stronger effect = lower value
From the text: Multicellular complex tumor spheroid response to LSD1 Inhibitor Iadademstat in combination with a variety of drugs and investigational agents in selected tumor cell lines
The current study was undertaken to assess response to LSD1 inhibitors in combination with standard-of-care drugs and investigational agents in solid tumor complex spheroid models as well as in the K-562 leukemia. Complex spheroids include a stromal component modeled by human endothelial cells (HUVEC) and fibroblasts modeled by human mesenchymal stem cells (MSCs). The concentration ranges selected for each drug and investigational agent were based upon clinically achievable concentrations if the clinical Cmax of the agent was known.
Compounds. The drugs and investigational agents used in this study are listed on Table 1. All of the agents used, including staurosporine (NSC755774) and gemcitabine (NSC613327), were obtained from the Developmental Therapeutics Program, NCI. FDA-approved anticancer drugs are available from the NCI at http://dtp.nci.nih.gov/branches/dscb/oncology_drugset_explanation.html. Drugs and investigational agents were >95% pure by proton nuclear magnetic resonance (NMR) and liquid chromatography/mass spectrometry (LC/MS). Stock solutions were prepared at 400x in DMSO, stored at -70 degrees C, and diluted in fresh medium prior to their use. The final concentration of DMSO in cell culture wells never exceeded 0.25% (v/v). The FDA-approved anticancer drug set is available from the Developmental Therapeutics Program at https://dtp.cancer.gov/organization/dscb/obtaining/available_plates.htm. All drugs and investigational agents were tested over a range starting from a high concentration at or near the clinical Cmax and decreasing in half-log increments. If the clinical Cmax for an agent had not been determined, the highest concentration tested was 10 microM.
Cell Lines. The patient-derived cancer cell (PDC) lines: 292921-168-R-J2-PDC, K24384-001-R-PDC, and 521955-158-R2-J5-PDC pancreatic carcinomas, 556581-035-R-J1 ovarian carcinoma, 324938-238-R-J1-PDC, 855422-203-R-J1-PDC and 883617-216-R-J1-PDC urothelial bladder carcinomas, 743489-274-T-PDC renal cell carcinoma, 138582-R-J1 Merkel cell tumor, K60290-347-R-J1 and K57222-313-R-J1-PDC glioblastomas, 653999-131-R-J2-PDC, LG0703-F948-PDC, and 349418-098-R-PDC non-small cell lung carcinomas, 885512-296-R-J2-PDC, 171881-019-R-J1-PDC breast carcinomas and 186277-243-T-J2-PDC and 233499-124-R-J2-PDC colon carcinomas were obtained from the NCI Patient-Derived Models Repository (PDMR, https://pdmr.cancer.gov). The established cell lines NCI/ADR-RES (RRID:CVCL_14520 and OVCAR-5 (RRID:CVCL_1628) ovarian carcinomas, 786-O (RRID:CVCL_1051) and A498 (RRID:CVCL_A498) renal cell carcinoma, NCI-H211 (ATCC, cat. CRL-5824; RRID:CVCL_1529), NCI-H196 (ATCC, cat. CRL-5823, RRID:CVCL_1509), SW 1271 (ATCC, cat. CRL-2177, RRID:CVCL_1716) and NCI-H1876 (ATCC, cat. CRL-5902, RRID:CVCL_1503) small cell lung carcinomas, MDA-MB-231 (RRID:CVCL_0062) and MDA-MB-468 (RRID:CVCL_0419)breast carcinomas (10-12). Pooled donor human umbilical vein endothelial cells (HUVEC, Lonza, cat. CC-2519) and human mesenchymal stem cells (hMSC, Lonza, cat. PT-2501) were purchased from Lonza (Walkersville, MD).
Cell Culture. All cells were maintained in an incubator at 37 degrees C and 5% CO2 with 95% humidity. The PDC lines were cultured according to standard operating procedures established by the NCI PDMR (https://pdmr.cancer.gov). Briefly all PDCs were thawed and cultured in Matrigel-coated flasks prepared with a working solution of 1X Ham's F-12 nutrient mix, without supplementation (Invitrogen, Waltham, MA, cat. 11765054), 100 U/mL penicillin-streptomycin (Invitrogen, cat. 15140122), and 2.5% Matrigel (Corning Inc., Corning, NY, cat. 354248) for the first three passages. […]

[1] = second compound 0.1 µM, first compound 0.0316 µM
[2] = second compound 0.1 µM, first compound 0.1 µM
[3] = second compound 0.316 µM, first compound 0.0316 µM
[4] = second compound 0.316 µM, first compound 0.1 µM
[5] = second compound 1 µM, first compound 0.0316 µM
[6] = second compound 1 µM, first compound 0.1 µM
[7] = second compound 3.16 µM, first compound 0.0316 µM
[8] = second compound 3.16 µM, first compound 0.1 µM
[9] = second compound 10 µM, first compound 0.0316 µM
[10] = second compound 10 µM, first compound 0.1 µM

SMILES: CC(C)CC(NC(=O)C(Cc1ccccc1)NC(=O)c1cnccn1)B(O)O (stereo not given) + NC1CC1c1ccc(-c2cccc(O)c2)cc1
- pIC50 (second compound 0.1 µM): 7.91
- pIC50 (second compound 0.316 µM): 7.90
- pIC50 (second compound 1 µM): 7.85
- pIC50 (second compound 3.16 µM): 7.91
- pIC50 (second compound 10 µM): 7.93
- viability, T/C (second compound 0.1 µM, first compound 0.000316 µM): 110%
- viability, T/C (second compound 0.1 µM, first compound 0.001 µM): 102%
- viability, T/C (second compound 0.1 µM, first compound 0.00316 µM): 92.2%
- viability, T/C (second compound 0.1 µM, first compound 0.01 µM): 61%
- viability, T/C [1]: 6.87%
- viability, T/C [2]: 0.38%
- viability, T/C (second compound 0.316 µM, first compound 0.000316 µM): 103%
- viability, T/C (second compound 0.316 µM, first compound 0.001 µM): 103%
- viability, T/C (second compound 0.316 µM, first compound 0.00316 µM): 94.6%
- viability, T/C (second compound 0.316 µM, first compound 0.01 µM): 61.7%
- viability, T/C [3]: 6.88%
- viability, T/C [4]: 0.32%
- viability, T/C (second compound 1 µM, first compound 0.000316 µM): 106%
- viability, T/C (second compound 1 µM, first compound 0.001 µM): 99.4%
- viability, T/C (second compound 1 µM, first compound 0.00316 µM): 93.5%
- viability, T/C (second compound 1 µM, first compound 0.01 µM): 69%
- viability, T/C [5]: 7.3%
- viability, T/C [6]: 0.37%
- viability, T/C (second compound 3.16 µM, first compound 0.000316 µM): 97.6%
- viability, T/C (second compound 3.16 µM, first compound 0.001 µM): 98.8%
- viability, T/C (second compound 3.16 µM, first compound 0.00316 µM): 87%
- viability, T/C (second compound 3.16 µM, first compound 0.01 µM): 58.2%
- viability, T/C [7]: 14.1%
- viability, T/C [8]: 0.23%
- viability, T/C (second compound 10 µM, first compound 0.000316 µM): 90.5%
- viability, T/C (second compound 10 µM, first compound 0.001 µM): 88.8%
- viability, T/C (second compound 10 µM, first compound 0.00316 µM): 75.4%
- viability, T/C (second compound 10 µM, first compound 0.01 µM): 59.6%
- viability, T/C [9]: 8.55%
- viability, T/C [10]: 0.36%

SMILES: Nc1ccccc1NC(=O)c1ccc(CNC(=O)OCc2cccnc2)cc1 + NC1CC1c1ccc(-c2cccc(O)c2)cc1
- pIC50 (second compound 0.1 µM): 6.08
- pIC50 (second compound 0.316 µM): 6.04
- pIC50 (second compound 1 µM): 6.04
- pIC50 (second compound 3.16 µM): 6.01
- pIC50 (second compound 10 µM): 6.05
- viability, T/C (second compound 0.1 µM, first compound 0.00949 µM): 93.7%
- viability, T/C (second compound 0.1 µM, first compound 0.03 µM): 97.9%
- viability, T/C (second compound 0.1 µM, first compound 0.0949 µM): 85.7%
- viability, T/C (second compound 0.1 µM, first compound 0.3 µM): 69.1%
- viability, T/C (second compound 0.1 µM, first compound 0.949 µM): 48.3%
- viability, T/C (second compound 0.1 µM, first compound 3 µM): 27.2%
- viability, T/C (second compound 0.316 µM, first compound 0.00949 µM): 99.2%
- viability, T/C (second compound 0.316 µM, first compound 0.03 µM): 95.9%
- viability, T/C (second compound 0.316 µM, first compound 0.0949 µM): 95%
- viability, T/C (second compound 0.316 µM, first compound 0.3 µM): 72.8%
- viability, T/C (second compound 0.316 µM, first compound 0.949 µM): 50.3%
- viability, T/C (second compound 0.316 µM, first compound 3 µM): 25.8%
- viability, T/C (second compound 1 µM, first compound 0.00949 µM): 93.3%
- viability, T/C (second compound 1 µM, first compound 0.03 µM): 91.1%
- viability, T/C (second compound 1 µM, first compound 0.0949 µM): 85.3%
- viability, T/C (second compound 1 µM, first compound 0.3 µM): 71.5%
- viability, T/C (second compound 1 µM, first compound 0.949 µM): 49.1%
- viability, T/C (second compound 1 µM, first compound 3 µM): 26.7%
- viability, T/C (second compound 3.16 µM, first compound 0.00949 µM): 93.5%
- viability, T/C (second compound 3.16 µM, first compound 0.03 µM): 89.5%
- viability, T/C (second compound 3.16 µM, first compound 0.0949 µM): 80.5%
- viability, T/C (second compound 3.16 µM, first compound 0.3 µM): 71%
- viability, T/C (second compound 3.16 µM, first compound 0.949 µM): 49.4%
- viability, T/C (second compound 3.16 µM, first compound 3 µM): 30.8%
- viability, T/C (second compound 10 µM, first compound 0.00949 µM): 83.4%
- viability, T/C (second compound 10 µM, first compound 0.03 µM): 84.1%
- viability, T/C (second compound 10 µM, first compound 0.0949 µM): 74.7%
- viability, T/C (second compound 10 µM, first compound 0.3 µM): 60.9%
- viability, T/C (second compound 10 µM, first compound 0.949 µM): 51.3%
- viability, T/C (second compound 10 µM, first compound 3 µM): 31%

SMILES: O=C(c1cc(Cc2n[nH]c(=O)c3ccccc23)ccc1F)N1CCN(C(=O)C2CC2)CC1 + NC1CC1c1ccc(-c2cccc(O)c2)cc1
- pIC50 (second compound 0.1 µM): < 5.00
- pIC50 (second compound 0.316 µM): < 5.00
- pIC50 (second compound 1 µM): < 5.00
- pIC50 (second compound 3.16 µM): < 5.00
- pIC50 (second compound 10 µM): < 5.00
- viability, T/C [1]: 112%
- viability, T/C [2]: 108%
- viability, T/C (second compound 0.1 µM, first compound 0.316 µM): 107%
- viability, T/C (second compound 0.1 µM, first compound 1 µM): 105%
- viability, T/C (second compound 0.1 µM, first compound 3.16 µM): 99.5%
- viability, T/C (second compound 0.1 µM, first compound 10 µM): 91.8%
- viability, T/C [3]: 111%
- viability, T/C [4]: 115%
- viability, T/C (second compound 0.316 µM, first compound 0.316 µM): 108%
- viability, T/C (second compound 0.316 µM, first compound 1 µM): 103%
- viability, T/C (second compound 0.316 µM, first compound 3.16 µM): 106%
- viability, T/C (second compound 0.316 µM, first compound 10 µM): 95%
- viability, T/C [5]: 106%
- viability, T/C [6]: 106%
- viability, T/C (second compound 1 µM, first compound 0.316 µM): 103%
- viability, T/C (second compound 1 µM, first compound 1 µM): 104%
- viability, T/C (second compound 1 µM, first compound 3.16 µM): 99.4%
- viability, T/C (second compound 1 µM, first compound 10 µM): 80.1%
- viability, T/C [7]: 110%
- viability, T/C [8]: 111%
- viability, T/C (second compound 3.16 µM, first compound 0.316 µM): 103%
- viability, T/C (second compound 3.16 µM, first compound 1 µM): 97.3%
- viability, T/C (second compound 3.16 µM, first compound 3.16 µM): 96.7%
- viability, T/C (second compound 3.16 µM, first compound 10 µM): 88.6%
- viability, T/C [9]: 91.8%
- viability, T/C [10]: 95.3%
- viability, T/C (second compound 10 µM, first compound 0.316 µM): 96.4%
- viability, T/C (second compound 10 µM, first compound 1 µM): 94.4%
- viability, T/C (second compound 10 µM, first compound 3.16 µM): 88.7%
- viability, T/C (second compound 10 µM, first compound 10 µM): 74.5%
